PubChem BioAssay (NCI)
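The compound was tested at five concentrations on cells cultured in 96-well plates, with a 48-hour exposure period. The concentration for 50% growth inhibition is given as GI50. TGI: concentration producing complete growth inhibition.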

Columns and labels:
Test in all cases: DTP human tumour cell line panel, 48 h
A498 renal = tested on: A498 renal
KM20L2 colon = tested on: KM20L2 colon
EKVX NSCLC = tested on: EKVX NSCLC
RPMI-8226 leukemia = tested on: RPMI-8226 leukemia
SK-OV-3 ovarian = tested on: SK-OV-3 ovarian
SW-620 colon = tested on: SW-620 colon
SK-MEL-28 melanoma = tested on: SK-MEL-28 melanoma
SF-295 CNS = tested on: SF-295 CNS
SF-539 CNS = tested on: SF-539 CNS
KM12 colon = tested on: KM12 colon
COLO 205 colon = tested on: COLO 205 colon
SK-MEL-2 melanoma = tested on: SK-MEL-2 melanoma
ACHN renal = tested on: ACHN renal
MALME-3M melanoma = tested on: MALME-3M melanoma
LXFL 529 NSCLC = tested on: LXFL 529 NSCLC
A549 NSCLC = tested on: A549 NSCLC
HOP-62 NSCLC = tested on: HOP-62 NSCLC
HL-60(TB) leukemia = tested on: HL-60(TB) leukemia
OVCAR-8 ovarian = tested on: OVCAR-8 ovarian
DMS 114 small cell lung = tested on: DMS 114 small cell lung
SN12C renal = tested on: SN12C renal
786-0 renal = tested on: 786-0 renal
CAKI-1 renal = tested on: CAKI-1 renal
NCI-H23 lung = tested on: NCI-H23 lung
XF 498 CNS = tested on: XF 498 CNS
TK-10 renal = tested on: TK-10 renal
MOLT-4 leukemia = tested on: MOLT-4 leukemia
RXF 393 renal = tested on: RXF 393 renal
K-562 leukemia = tested on: K-562 leukemia
UACC-62 melanoma = tested on: UACC-62 melanoma
DLD-1 colon = tested on: DLD-1 colon
UO-31 renal = tested on: UO-31 renal
HT29 colon = tested on: HT29 colon
SNB-75 CNS = tested on: SNB-75 CNS
OVCAR-5 ovarian = tested on: OVCAR-5 ovarian
SNB-19 CNS = tested on: SNB-19 CNS
M19-MEL melanoma = tested on: M19-MEL melanoma
NCI-H522 lung = tested on: NCI-H522 lung
HCC-2998 colon = tested on: HCC-2998 colon
CCRF-CEM leukemia = tested on: CCRF-CEM leukemia
NCI-H460 lung = tested on: NCI-H460 lung
OVCAR-4 ovarian = tested on: OVCAR-4 ovarian
HOP-92 NSCLC = tested on: HOP-92 NSCLC
LOX IMVI melanoma = tested on: LOX IMVI melanoma
M14 melanoma = tested on: M14 melanoma
HCT-15 colon = tested on: HCT-15 colon
SK-MEL-5 melanoma = tested on: SK-MEL-5 melanoma
NCI-H226 lung = tested on: NCI-H226 lung
SF-268 CNS = tested on: SF-268 CNS
IGROV1 ovarian = tested on: IGROV1 ovarian
UACC-257 melanoma = tested on: UACC-257 melanoma
HOP-18 NSCLC = tested on: HOP-18 NSCLC
DMS 273 small cell lung = tested on: DMS 273 small cell lung
HCT-116 colon = tested on: HCT-116 colon
U251 CNS = tested on: U251 CNS
OVCAR-3 ovarian = tested on: OVCAR-3 ovarian
SNB-78 CNS = tested on: SNB-78 CNS

In the case of `CC1(C)OC2OC(COC(=O)C(c3ccccc3)c3ccccc3)C3OC(C)(C)OC3C2O1` (stereo not given), the GI50 (A498 renal) is reported as greater than 100 µM, the TGI (A498 renal) is reported as greater than 100 µM and the TGI (KM20L2 colon) is reported as greater than 100 µM. It also gave a GI50 (EKVX NSCLC) greater than 100 µM, a TGI (EKVX NSCLC) greater than 100 µM and a TGI (RPMI-8226 leukemia) of 42.7 µM. It also gave a GI50 (SK-OV-3 ovarian) greater than 100 µM, a TGI (SK-OV-3 ovarian) greater than 100 µM and a TGI (SW-620 colon) greater than 100 µM. It also gave a TGI (SK-MEL-28 melanoma) greater than 100 µM, a TGI (SF-295 CNS) greater than 100 µM and a TGI (SF-539 CNS) greater than 100 µM. The TGI (KM12 colon) was greater than 100 µM, the TGI (COLO 205 colon) was greater than 100 µM and the TGI (SK-MEL-2 melanoma) was greater than 100 µM. For the same compound, the TGI (ACHN renal) was greater than 100 µM, the TGI (MALME-3M melanoma) was greater than 100 µM and the GI50 (LXFL 529 NSCLC) was greater than 100 µM. It also gave a TGI (LXFL 529 NSCLC) greater than 100 µM, a TGI (A549 NSCLC) greater than 100 µM and a GI50 (HOP-62 NSCLC) greater than 100 µM. For the same compound, the TGI (HOP-62 NSCLC) was greater than 100 µM, the GI50 (HL-60(TB) leukemia) was 2.99 µM and the TGI (HL-60(TB) leukemia) was 13.8 µM. It also gave a TGI (OVCAR-8 ovarian) greater than 100 µM, a TGI (DMS 114 small cell lung) greater than 100 µM and a TGI (SN12C renal) greater than 100 µM. It also gave a TGI (786-0 renal) greater than 100 µM, a GI50 (CAKI-1 renal) greater than 100 µM and a TGI (CAKI-1 renal) greater than 100 µM. For the same compound, the TGI (NCI-H23 lung) was greater than 100 µM, the TGI (XF 498 CNS) was 99.7 µM and the GI50 (TK-10 renal) was greater than 100 µM. For the same compound, the TGI (TK-10 renal) was greater than 100 µM, the GI50 (MOLT-4 leukemia) was 3.76 µM and the TGI (MOLT-4 leukemia) was greater than 100 µM. The TGI (RXF 393 renal) was greater than 100 µM, the TGI (K-562 leukemia) was greater than 100 µM and the TGI (UACC-62 melanoma) was greater than 100 µM. The TGI (DLD-1 colon) was greater than 100 µM, the TGI (UO-31 renal) was greater than 100 µM and the TGI (HT29 colon) was greater than 100 µM. For the same compound, the TGI (SNB-75 CNS) was 87.2 µM, the GI50 (OVCAR-5 ovarian) was greater than 100 µM and the TGI (OVCAR-5 ovarian) was greater than 100 µM. It also gave a TGI (SNB-19 CNS) greater than 100 µM, a TGI (M19-MEL melanoma) greater than 100 µM and a TGI (NCI-H522 lung) greater than 100 µM. For the same compound, the GI50 (HCC-2998 colon) was greater than 100 µM, the TGI (HCC-2998 colon) was greater than 100 µM and the TGI (CCRF-CEM leukemia) was greater than 100 µM. For the same compound, the TGI (NCI-H460 lung) was greater than 100 µM, the TGI (OVCAR-4 ovarian) was greater than 100 µM and the TGI (HOP-92 NSCLC) was greater than 100 µM. The TGI (LOX IMVI melanoma) was greater than 100 µM, the TGI (M14 melanoma) was greater than 100 µM and the TGI (HCT-15 colon) was greater than 100 µM. For the same compound, the TGI (SK-MEL-5 melanoma) was 24.4 µM, the GI50 (NCI-H226 lung) was greater than 100 µM and the TGI (NCI-H226 lung) was greater than 100 µM. The TGI (SF-268 CNS) was greater than 100 µM, the GI50 (IGROV1 ovarian) was greater than 100 µM and the TGI (IGROV1 ovarian) was greater than 100 µM.
Compound `O=C(NN1C(=O)C(Cl)C1c1c(O)ccc2ccccc12)c1ccccc1O` (stereo not given) has a TGI (A498 renal) greater than 100 µM, a TGI (UACC-257 melanoma) greater than 100 µM and a TGI (SK-OV-3 ovarian) greater than 100 µM. The TGI (SK-MEL-28 melanoma) was greater than 100 µM, the TGI (SF-295 CNS) was greater than 100 µM and the TGI (SF-539 CNS) was greater than 100 µM. For the same compound, the TGI (KM12 colon) was greater than 100 µM, the TGI (SK-MEL-2 melanoma) was greater than 100 µM and the TGI (ACHN renal) was greater than 100 µM. It also gave a TGI (MALME-3M melanoma) greater than 100 µM, a TGI (LXFL 529 NSCLC) greater than 100 µM and a TGI (A549 NSCLC) greater than 100 µM. The TGI (HOP-18 NSCLC) was greater than 100 µM, the TGI (HL-60(TB) leukemia) was greater than 100 µM and the TGI (OVCAR-8 ovarian) was greater than 100 µM. For the same compound, the TGI (DMS 114 small cell lung) was greater than 100 µM, the TGI (SN12C renal) was greater than 100 µM and the TGI (786-0 renal) was greater than 100 µM. The TGI (NCI-H23 lung) was greater than 100 µM, the TGI (XF 498 CNS) was greater than 100 µM and the TGI (TK-10 renal) was greater than 100 µM. It also gave a TGI (MOLT-4 leukemia) greater than 100 µM, a TGI (RXF 393 renal) greater than 100 µM and a TGI (K-562 leukemia) greater than 100 µM. It also gave a TGI (UACC-62 melanoma) greater than 100 µM, a TGI (DLD-1 colon) greater than 100 µM and a TGI (DMS 273 small cell lung) greater than 100 µM. For the same compound, the TGI (UO-31 renal) was greater than 100 µM, the TGI (HT29 colon) was greater than 100 µM and the TGI (SNB-75 CNS) was greater than 100 µM. The TGI (SNB-19 CNS) was greater than 100 µM, the TGI (M19-MEL melanoma) was greater than 100 µM and the TGI (NCI-H522 lung) was greater than 100 µM. The TGI (CCRF-CEM leukemia) was greater than 100 µM, the TGI (NCI-H460 lung) was greater than 100 µM and the TGI (HCT-116 colon) was greater than 100 µM. For the same compound, the TGI (OVCAR-4 ovarian) was greater than 100 µM, the TGI (U251 CNS) was greater than 100 µM and the TGI (LOX IMVI melanoma) was greater than 100 µM. For the same compound, the TGI (M14 melanoma) was greater than 100 µM, the TGI (HCT-15 colon) was greater than 100 µM and the TGI (SK-MEL-5 melanoma) was greater than 100 µM. For the same compound, the TGI (NCI-H226 lung) was greater than 100 µM, the TGI (SF-268 CNS) was greater than 100 µM and the TGI (IGROV1 ovarian) was greater than 100 µM. The TGI (OVCAR-3 ovarian) was greater than 100 µM and the TGI (SNB-78 CNS) was greater than 100 µM.
